Measured values published in patent US12448400B2, “KRAS G12D modulating compounds” (priority 2023, dated 2025).
pEC50: −log10 of the molar value.

Each compound was assayed on GP2D (KRAS G12D) cells (assay: 2D cell viability assay (CellTiter-Glo)). Conditions: 96 h; GP2D cells, 4 days, CellTiter-Glo luminescence; read-out: G12D 2D EC50.
Format: cell-based
Description: Example B. 2D Cell Viability Assay
Compounds were tested in a 384-well format for their ability to inhibit the viability of GP2D (KRAS G12D) cells in 2D assays. Compounds were serially diluted (1:3) in DMSO. The LabCyte ECHO Acoustic dispenser system was used to pre-spot assay plates with 200 nL of test molecule per well. 1000 cells/well (40 μL volume per well) in RPMI medium with 10% FBS, and Penicillin-Streptomycin-Glutamine were plated in pre-spotted 384-well plates (Greiner, Catalog #781076) on the BioTEK EL406 liquid dispenser with a 5 μL dispensing cassette (BioTek 7170011). The plates were incubated at 37° C., 5% CO2 for 4 days before addition of CellTiter-Glo (CTG) reagent and measurement of luminescence signal. EC50 values were defined as the compound concentration that causes a 50% decrease in luminescence signal and were calculated using a sigmoidal dose-response model to generate curve fits.

Row | SMILES | pEC50
1 | C#Cc1c(F)ccc2cc(O)cc(-c3nc4c5c(nc(OC[C@@]67CCCN6C[C@H](F)C7)nc5c3F)N3C[C@H]5CC[C@@H]([C@H]3CCC4)N5Cc3oc(=O)oc3CC)c12 [Example 40, 4-ethyl-5-(((6aR,7S,10R)-2-(8-ethynyl-7-fluoro-3-hydroxynaphthalen-1-yl)-1-fluoro-13-(((2R,7aS)-2-fluorotetrahydro-1H-pyrrolizin-7a(5H)-yl)methoxy)-5,6,6a,7,8,9,10,11-octahydro-4H-3,11a,12,14,15-pentaaza-7,10-methanocyclohepta[4,5]cycloocta[1,2,3-de]naphthalen-15-yl)methyl)-1,3-dioxol-2-one] | 9.66
2 | C#Cc1c(F)ccc2cc(O)cc(-c3nc4c5c(nc(OC[C@@]67CCCN6C[C@H](F)C7)nc5c3F)N3C[C@H]5CC[C@@H]([C@H]3CCC4)N5Cc3oc(=O)oc3CCC)c12 [Example 41, 4-(((6aR,7S,10R)-2-(8-ethynyl-7-fluoro-3-hydroxynaphthalen-1-yl)-1-fluoro-13-(((2R,7aS)-2-fluorotetrahydro-1H-pyrrolizin-7a(5H)-yl)methoxy)-5,6,6a,7,8,9,10,11-octahydro-4H-3,11a,12,14,15-pentaaza-7,10-methanocyclohepta[4,5]cycloocta[1,2,3-de]naphthalen-15-yl)methyl)-5-propyl-1,3-dioxol-2-one] | 9.74
3 | C#Cc1c(F)ccc2cc(OCc3oc(=O)oc3C(C)(C)C)cc(-c3nc4c5c(nc(OC[C@@]67CCCN6C[C@H](F)C7)nc5c3F)N3C[C@H]5CC[C@H](N5)[C@@H]3[C@@H](C)C4)c12 [Example 67, 4-(tert-butyl)-5-(((5-ethynyl-6-fluoro-4-((5S,5aS,6S,9R)-1-fluoro-12-(((2R,7aS)-2-fluorotetrahydro-1H-pyrrolizin-7a(5H)-yl)methoxy)-5-methyl-4,5,5a,6,7,8,9,10-octahydro-3,10a,11,13,14-pentaaza-6,9-methanonaphtho[1,8-ab]heptalen-2-yl)naphthalen-2-yl)oxy)methyl)-1,3-dioxol-2-one] | 8.89
4 | C#Cc1c(F)ccc2cc(N)cc(-c3nc4c5c(nc(OC[C@@]67CCCN6C[C@H](F)C7)nc5c3F)N3C[C@H]5CC[C@@H]([C@H]3CCC4)N5Cc3oc(=O)oc3-c3ccccc3)c12 [Example 69, 4-(((6aR,7S,10R)-2-(3-amino-8-ethynyl-7-fluoronaphthalen-1-yl)-1-fluoro-13-(((2R,7aS)-2-fluorotetrahydro-1H-pyrrolizin-7a(5H)-yl)methoxy)-5,6,6a,7,8,9,10,11-octahydro-4H-3,11a,12,14,15-pentaaza-7,10-methanocyclohepta[4,5]cycloocta[1,2,3-de]naphthalen-15-yl)methyl)-5-phenyl-1,3-dioxol-2-one] | 9.32
5 | C#Cc1c(F)ccc2cc(NCc3oc(=O)oc3C)cc(-c3nc4c5c(nc(OC[C@@]67CCCN6C[C@H](F)C7)nc5c3F)N3C[C@H]5CC[C@@H]([C@H]3CCC4)N5Cc3oc(=O)oc3C)c12 [Example 70, 4-(((5-ethynyl-6-fluoro-4-((6aR,7S,10R)-1-fluoro-13-(((2R,7aS)-2-fluorotetrahydro-1H-pyrrolizin-7a(5H)-yl)methoxy)-15-((5-methyl-2-oxo-1,3-dioxol-4-yl)methyl)-5,6,6a,7,8,9,10,11-octahydro-4H-3,11a,12,14,15-pentaaza-7,10-methanocyclohepta[4,5]cycloocta[1,2,3-de]naphthalen-2-yl)naphthalen-2-yl)amino)methyl)-5-methyl-1,3-dioxol-2-one] | 9.51
6 | C#Cc1c(F)ccc2cc(O)cc(-c3nc4c5c(nc(OC[C@@]67CCCN6C[C@H](F)C7)nc5c3F)N3C[C@H]5CC[C@@H]([C@H]3CCC4)N5Cc3oc(=O)oc3-c3ccccc3)c12 [Example 72, 4-(((6aR,7S,10R)-2-(8-ethynyl-7-fluoro-3-hydroxynaphthalen-1-yl)-1-fluoro-13-(((2R,7aS)-2-fluorotetrahydro-1H-pyrrolizin-7a(5H)-yl)methoxy)-5,6,6a,7,8,9,10,11-octahydro-4H-3,11a,12,14,15-pentaaza-7,10-methanocyclohepta[4,5]cycloocta[1,2,3-de]naphthalen-15-yl)methyl)-5-phenyl-1,3-dioxol-2-one] | 9.96
7 | C#Cc1c(F)ccc2cc(O)cc(-c3nc4c5c(nc(OC[C@]6(C)CN(C)CC[C@@H]6C(F)F)nc5c3F)N3C[C@H]5CC[C@@H]([C@H]3CCC4)N5Cc3oc(=O)oc3C)c12 [Example 74, 4-(((6aR,7S,10R)-13-(((3S,4S)-4-(difluoromethyl)-1,3-dimethylpiperidin-3-yl)methoxy)-2-(8-ethynyl-7-fluoro-3-hydroxynaphthalen-1-yl)-1-fluoro-5,6,6a,7,8,9,10,11-octahydro-4H-3,11a,12,14,15-pentaaza-7,10-methanocyclohepta[4,5]cycloocta[1,2,3-de]naphthalen-15-yl)methyl)-5-methyl-1,3-dioxol-2-one] | 10.22
8 | [2H]C([2H])([2H])N1CC[C@H](C(F)F)[C@](C)(C([2H])([2H])Oc2nc3c4c(nc(-c5cc(O)cc6ccc(F)c(C#C)c56)c(F)c4n2)CCC[C@@H]2[C@@H]4CC[C@H](CN32)N4Cc2oc(=O)oc2C)C1 [Example 75, 4-(((6aR,7S,10R)-13-(((3S,4S)-4-(difluoromethyl)-3-methyl-1-(methyl-d3)piperidin-3-yl)methoxy-d2)-2-(8-ethynyl-7-fluoro-3-hydroxynaphthalen-1-yl)-1-fluoro-5,6,6a,7,8,9,10,11-octahydro-4H-3,11a,12,14,15-pentaaza-7,10-methanocyclohepta[4,5]cycloocta[1,2,3-de]naphthalen-15-yl)methyl)-5-methyl-1,3-dioxol-2-one] | 10.10
9 | C#Cc1c(F)ccc2cc(N)cc(-c3nc4c5c(nc(OC[C@]6(C)CN(C)CC[C@@H]6C(F)F)nc5c3F)N3C[C@H]5CC[C@@H]([C@H]3CCC4)N5Cc3oc(=O)oc3C)c12 [Example 76, 4-(((6aR,7S,10R)-2-(3-amino-8-ethynyl-7-fluoronaphthalen-1-yl)-13-(((3S,4S)-4-(difluoromethyl)-1,3-dimethylpiperidin-3-yl)methoxy)-1-fluoro-5,6,6a,7,8,9,10,11-octahydro-4H-3,11a,12,14,15-pentaaza-7,10-methanocyclohepta[4,5]cycloocta[1,2,3-de]naphthalen-15-yl)methyl)-5-methyl-1,3-dioxol-2-one] | 9.05

Same assay, conditions: GP2D cells, 4 days, CellTiter-Glo luminescence; read-out: G12D 2D EC50

Row | SMILES | pEC50
10 | C#Cc1c(F)ccc2cc(O)cc(-c3nc4c5c(nc(OCC67CCCN6C(COC(C(F)(F)F)(C(F)(F)F)C(F)(F)F)CC7)nc5c3F)N3CC5CCC(C3CC4)N5Cc3oc(=O)oc3C)c12 [Example 68, 4-(((8aR,9S,12R)-5-(8-ethynyl-7-fluoro-3-hydroxynaphthalen-1-yl)-4-fluoro-2-(((3S,7aS)-3-(((1,1,1,3,3,3-hexafluoro-2-(trifluoromethyl)propan-2-yl)oxy)methyl)tetrahydro-1H-pyrrolizin-7a(5H)-yl)methoxy)-7,8,8a,9,10,11,12,13-octahydro-1,3,6,13a,14-pentaaza-9,12-methanonaphtho[1,8-ab]heptalen-14-yl)methyl)-5-methyl-1,3-dioxol-2-one] | 9.19
